Our source for the EC50 values is patent US12440496B2, “Natriuretic peptide receptor a agonists useful for the treatment of cardiometabolic diseases, kidney disease and diabetes” (Merck Sharp & Dohme LLC, priority 2019, dated 2025).

For the experiment, the target named is T1, hNPRA (Homo sapiens, UniProt P16066).
T1 construct: expressed in transfected cells
T1 sequence (P16066 33-1061): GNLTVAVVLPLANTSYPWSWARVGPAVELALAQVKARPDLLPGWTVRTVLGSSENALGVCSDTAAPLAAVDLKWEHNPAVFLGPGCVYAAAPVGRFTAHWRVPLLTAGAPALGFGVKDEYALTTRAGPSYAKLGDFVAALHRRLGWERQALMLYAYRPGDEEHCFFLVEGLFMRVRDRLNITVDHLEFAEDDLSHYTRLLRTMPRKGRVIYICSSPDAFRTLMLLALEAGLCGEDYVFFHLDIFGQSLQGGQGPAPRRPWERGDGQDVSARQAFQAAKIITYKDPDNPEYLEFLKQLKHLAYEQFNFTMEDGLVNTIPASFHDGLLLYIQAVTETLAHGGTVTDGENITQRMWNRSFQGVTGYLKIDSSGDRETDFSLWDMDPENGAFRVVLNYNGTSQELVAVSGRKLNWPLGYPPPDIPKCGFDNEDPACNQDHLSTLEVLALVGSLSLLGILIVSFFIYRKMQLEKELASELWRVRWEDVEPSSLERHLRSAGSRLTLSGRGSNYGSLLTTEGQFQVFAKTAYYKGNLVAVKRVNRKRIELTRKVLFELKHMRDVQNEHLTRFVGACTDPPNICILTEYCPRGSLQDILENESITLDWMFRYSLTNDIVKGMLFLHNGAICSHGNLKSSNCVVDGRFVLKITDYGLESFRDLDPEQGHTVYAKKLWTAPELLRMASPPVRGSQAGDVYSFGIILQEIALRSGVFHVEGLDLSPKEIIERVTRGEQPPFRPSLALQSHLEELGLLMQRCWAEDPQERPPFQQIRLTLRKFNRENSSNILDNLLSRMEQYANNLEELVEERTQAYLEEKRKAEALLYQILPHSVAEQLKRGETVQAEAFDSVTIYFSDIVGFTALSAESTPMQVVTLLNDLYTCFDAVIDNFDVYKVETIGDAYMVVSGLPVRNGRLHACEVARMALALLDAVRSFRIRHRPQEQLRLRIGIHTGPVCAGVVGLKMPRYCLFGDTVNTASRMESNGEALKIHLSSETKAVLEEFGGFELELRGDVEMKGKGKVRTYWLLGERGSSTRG
The experiment in a line: NPRA Functional Cell Assay (cGMP HTRF, NPRA HEK JumpIn stable cells). Type of experiment: cell-based. The following applies: cGMP production, 1 hour at 37° C., 10-point dose response. Summed up: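 cGMP HTRF read-out after 1 hour compound treatment at 37° C. of human NPRA-expressing HEK JumpIn cells, 1500 cells/well, in buffer with phosphodiesterase inhibitors IBMX and RO20 (100 uM each). Signal converted to [cGMP] by calibration curve; EC50s fitted by 4-parameter logistic; 50 nM h-ANP as positive response.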
In turn, `CC(C)(C)[C@H]1CCc2nc3sc(C(=O)N[C@H](CCN4CCC(O)CC4)c4ccc(-c5csc(C(=O)O)c5)cc4)nc3cc2C1` (racemic) [Example 126, 4-[4-[rac-(1R)-3-(4-hydroxy-1-piperidyl)-1-[[rac-(7S)-7-tert-butyl-5,6,7,8-tetrahydrothiazolo[5,4-b]quinoline-2-carbonyl]amino]propyl]phenylthiophene-2-carboxylic acid] yielded an EC50 of 0.374 µM.

In the case of `CC(C)(C)[C@H]1CCc2nc3sc(C(=O)N[C@H](CCN4CCC(O)CC4)c4ccc(-c5cnc(=O)[nH]c5)cc4)nc3cc2C1` (racemic) [Example 127, rac-(7S)-7-tert-butyl-N-[rac-(1R)-3-(4-hydroxypiperidin-1-ium-1-yl)-1-[4-(2-oxo-1H-pyrimidin-5-yl)phenyl]propyl]-5,6,7,8-tetrahydrothiazolo [5,4-b]quinoline-2-carboxamide; 2,2,2-trifluoroacetate], the response was half-maximal at 0.452 µM (EC50).

In turn, `CC(C)(C)[C@H]1CCc2nc3sc(C(=O)N[C@H](CCN4CCC(O)CC4)c4ccc(-c5ccc(OCCF)nc5)cc4)nc3cc2C1` (racemic) [Example 128, rac-(7S)-7-tert-butyl-N-[rac-(1R)-1-[4-[6-(2-fluoroethoxy)-3-pyridyl]phenyl]-3-(4-hydroxypiperidin-1-ium-1-yl)propyl]-5,6,7,8-tetrahydrothiazolo[5,4-b] quinoline-2-carboxamide; 2,2,2-trifluoroacetate] yielded an EC50 of 1.18 µM.

`CC(C)(C)[C@H]1CCc2nc3sc(C(=O)N[C@H](CCN4CCC(O)CC4)c4ccc(-c5ccc(O)cc5)cc4)nc3cc2C1` (racemic) [Example 129, rac-(7S)-7-tert-butyl-N-[rac-(1R)-1-[4-(4-hydroxyphenyl)phenyl]-3-(4-hydroxypiperidin-1-ium-1-yl)propyl]-5,6,7,8-tetrahydrothiazolo[5,4-b] quinoline-2-carboxamide; 2,2,2-trifluoroacetate]: the EC50 is 1.44 µM.

On to `CC(C)(C)[C@H]1CCc2nc3sc(C(=O)N[C@H](CCN4CCC(O)CC4)c4cccc(C(=O)N[C@@H]5CCNC5)c4)nc3cc2C1` (racemic) [Example 130, rac-(7S)-7-tert-butyl-N-[rac-(1R)-3-(4-hydroxy-1-piperidyl)-1-[3-[[rac-(3R)-pyrrolidin-3-yl]carbamoyl]phenyl]propyl]-5,6,7,8-tetrahydrothiazolo[5,4-b]quinoline-2-carboxamide], for which it took 0.0965 µM to reach a half-maximal effect (EC50).

`CC(C)(C)[C@H]1CCc2nc3sc(C(=O)N[C@H](CCN4CCC(O)CC4)c4cccc(C(=O)N5CC6(CCCNC6)C5)c4)nc3cc2C1` (racemic) [Example 131, rac-(7S)-7-tert-butyl-N-[rac-(1R)-1-[3-(2,8-diazaspiro[3.5]nonane-2-carbonyl)phenyl]-3-(4-hydroxy-1-piperidyl)propyl]-5,6,7,8-tetrahydrothiazolo[5,4-b]quinoline-2-carboxamide] showed an EC50 of 0.0967 µM.

Molecule `CC(C)(C)[C@H]1CCc2nc3sc(C(=O)N[C@H](CCN4CCC(O)CC4)c4cccc(C(=O)N5CC(CN6CCCC6)C5)c4)nc3cc2C1` (racemic) [Example 132, rac-(7S)-7-tert-butyl-N-[rac-(1R)-3-(4-hydroxy-1-piperidyl)-1-[3-[3-(pyrrolidin-1-ylmethyl)azetidine-1-carbonyl]phenyl]propyl]-5,6,7,8-tetrahydrothiazolo[5,4-b]quinoline-2-carboxamide] registered an EC50 of 0.102 µM.

The molecule `CC(C)(C)[C@H]1CCc2nc3sc(C(=O)N[C@H](CCN4CCC(O)CC4)c4cccc(C(=O)NC5CCNCC5)c4)nc3cc2C1` (racemic) [Example 133, rac-(7S)-7-tert-butyl-N-[rac-(1R)-3-(4-hydroxy-1-piperidyl)-1-[3-(4-piperidylcarbamoyl)phenyl]propyl]-5,6,7,8-tetrahydrothiazolo[5,4-b]quinoline-2-carboxamide] came in with an EC50 of 0.117 µM.

Regarding `CN1CC[C@@H](NC(=O)c2cccc([C@@H](CCN3CCC(O)CC3)NC(=O)c3nc4cc5c(nc4s3)CC[C@H](C(C)(C)C)C5)c2)C1` (racemic) [Example 134, rac-(7S)-7-tert-butyl-N-[rac-(1R)-3-(4-hydroxy-1-piperidyl)-1-[3-[[rac-(3R)-1-methylpyrrolidin-3-yl]carbamoyl]phenyl]propyl]-5,6,7,8-tetrahydrothiazolo[5,4-b]quinoline-2-carboxamide], the EC50 came to 0.126 µM.

For `CC(C)(C)[C@H]1CCc2nc3sc(C(=O)N[C@H](CCN4CCC(O)CC4)c4cccc(C(=O)N[C@@H]5CNC[C@H]5O)c4)nc3cc2C1` (racemic) [Example 135, rac-(7S)-7-tert-butyl-N-[rac-(1R)-3-(4-hydroxy-1-piperidyl)-1-[3-[[rac-(3R,4R)-4-hydroxypyrrolidin-3-yl]carbamoyl]phenyl]propyl]-5,6,7,8-tetrahydrothiazolo[5,4-b]quinoline-2-carboxamide], the response was half-maximal at 0.132 µM (EC50).

On to `CC(C)(C)[C@H]1CCc2nc3sc(C(=O)N[C@H](CCN4CCC(O)CC4)c4cccc(C(=O)NC5CNC5)c4)nc3cc2C1` (racemic) [Example 136, rac-(7S)-7-tert-butyl-N-[rac-(1R)-1-[3-(azetidin-3-ylcarbamoyl)phenyl]-3-(4-hydroxy-1-piperidyl)propyl]-5,6,7,8-tetrahydrothiazolo[5,4-b]quinoline-2-carboxamide], for which the EC50 is 0.138 µM.

As for `CC(C)(C)[C@H]1CCc2nc3sc(C(=O)N[C@H](CCN4CCC(O)CC4)c4cccc(C(=O)N[C@H]5CNC[C@@H]5O)c4)nc3cc2C1` (racemic) [Example 137, rac-(7S)-7-tert-butyl-N-[rac-(1R)-3-(4-hydroxy-1-piperidyl)-1-[3-[[rac-(3S,4S)-4-hydroxypyrrolidin-3-yl]carbamoyl]phenyl]propyl]-5,6,7,8-tetrahydrothiazolo[5,4-b]quinoline-2-carboxamide], the EC50 is 0.176 µM.

`CN1CC[C@H](NC(=O)c2cccc([C@@H](CCN3CCC(O)CC3)NC(=O)c3nc4cc5c(nc4s3)CC[C@H](C(C)(C)C)C5)c2)C1` (racemic) [Example 138, rac-(7S)-7-tert-butyl-N-[rac-(1R)-3-(4-hydroxy-1-piperidyl)-1-[3-[[rac-(3S)-1-methylpyrrolidin-3-yl]carbamoyl]phenyl]propyl]-5,6,7,8-tetrahydrothiazolo[5,4-b]quinoline-2-carboxamide] came in with an EC50 of 0.21 µM.

Take `CC1(C)NCCC1NC(=O)c1cccc([C@@H](CCN2CCC(O)CC2)NC(=O)c2nc3cc4c(nc3s2)CC[C@H](C(C)(C)C)C4)c1` (mixture of isomers) [Example 139, rac-(7S)-7-tert-butyl-N-[rac-(1R)-1-[3-[(2,2-dimethylpyrrolidin-3-yl)carbamoyl]phenyl]-3-(4-hydroxy-1-piperidyl)propyl]-5,6,7,8-tetrahydrothiazolo[5,4-b]quinoline-2-carboxamide]: a half-maximal response (EC50) required 0.219 µM.

On to `CN1CCCC(NC(=O)c2cccc([C@@H](CCN3CCC(O)CC3)NC(=O)c3nc4cc5c(nc4s3)CC[C@H](C(C)(C)C)C5)c2)C1` (mixture of isomers) [Example 140, rac-(7S)-7-tert-butyl-N-[rac-(1R)-3-(4-hydroxy-1-piperidyl)-1-[3-[(1-methyl-3-piperidyl)carbamoyl]phenyl]propyl]-5,6,7,8-tetrahydrothiazolo[5,4-b]quinoline-2-carboxamide], for which the EC50 came to 0.225 µM.

For the molecule `CN1CCC(NC(=O)c2cccc([C@@H](CCN3CCC(O)CC3)NC(=O)c3nc4cc5c(nc4s3)CC[C@H](C(C)(C)C)C5)c2)CC1` (racemic) [Example 141, rac-(7S)-7-tert-butyl-N-[rac-(1R)-3-(4-hydroxy-1-piperidy1)-1-[3-[(1-methyl-4-piperidyl)carbamoyl]phenyl]propyl]-5,6,7,8-tetrahydrothiazolo[5,4-b]quinoline-2-carboxamide], it took 0.258 µM to reach a half-maximal effect (EC50).

For `CN1CCC(CNC(=O)c2cccc([C@@H](CCN3CCC(O)CC3)NC(=O)c3nc4cc5c(nc4s3)CC[C@H](C(C)(C)C)C5)c2)C1` (mixture of isomers) [Example 142, rac-(7S)-7-tert-butyl-N-[rac-(1R)-3-(4-hydroxy-1-piperidyl)-1-[3-[(1-methylpyrrolidin-3-yl)methylcarbamoyl]phenyl]propyl]-5,6,7,8-tetrahydrothiazolo[5,4-b]quinoline-2-carboxamide], the midpoint of the response, the EC50, lay at 0.258 µM.
